Data from patent publication US20230123334A1, “AMINO LIPID COMPOUND, PREPARATION METHOD THEREFOR, AND APPLICATION THEREOF” (SHENZHEN SHENXIN BIOTECHNOLOGY CO., LTD., priority 2020, published 2023).

tested on: HEK293 cells; experiment: Preliminary screening as DNA vectors, GFP transfection of HEK293 cells; format: cell-based; conditions: HEK293 cells; lipid/DOPE liposome with 75 ng plasmid DNA (psin-EGFP-IRES-Puro); number of cells expressing GFP divided by total number of nuclei (Hoechst)
Method in brief: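 HEK293 cells in DMEM/10% FBS transfected with 75 ng EGFP plasmid per well complexed with amino lipid/DOPE liposomes in pH 5.6 sodium acetate. Hoechst nuclear stain added 20-24 h post-transfection, then cells cultured another 20-24 h. Confocal imaging gives GFP-positive cells as % of total nuclei.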

Structure (SMILES)	Absolute DNA transfection efficiency in HEK293 cells
CCCCCCCCCCCCCCCCSc1nc(NCCN2CCOCC2)nc(SCCCCCCCCCCCCCCC)n1 [Compound S15S16D2]	0.0%
CCCCCCCCCCCCCCCCSc1nc(NCCN2CCCC2)nc(SCCCCCCCCCCCCCCC)n1 [Compound S15S16D3]	0.1%
CCCCCCCCCCCCCCCCSc1nc(NCCN2CCCCC2)nc(SCCCCCCCCCCCCCCC)n1 [Compound S15S16D4]	2.0%
CCCCCCCCCCCCCCCCSc1nc(NCCN2CCN(C)CC2)nc(SCCCCCCCCCCCCCCC)n1 [Compound S15S16D5]	0.2%
CCCCCCCCCCCCCCCCSc1nc(NCCCN(C)C)nc(SCCCCCCCCCCCCCCC)n1 [Compound S15S16D6]	0.2%
CCCCCCCCCCCCCCCCSc1nc(NCCN(CC)CC)nc(SCCCCCCCCCCCCCCC)n1 [Compound S15S16D7]	0.6%
CCCCCCCCCCCCCCCCSc1nc(NCCCN2CCOCC2)nc(SCCCCCCCCCCCCCCC)n1 [Compound S15S16D8]	0.0%
CCCCCCCCCCCCCCCCSc1nc(NCCCN2CCN(C)CC2)nc(SCCCCCCCCCCCCCCC)n1 [Compound S15S16D9]	0.3%
CCCCCCCCCCCCCCCCSc1nc(NCC2CCN(C)CC2)nc(SCCCCCCCCCCCCCCC)n1 [Compound S15S16D10]	0.6%
CCCCCCCCCCCCCCCCCCSc1nc(NCCN(C)C)nc(SCCCCCCCCCCCCCCC)n1 [Compound S15S18D1]	0.0%
CCCCCCCCCCCCCCCCCCSc1nc(NCCN2CCOCC2)nc(SCCCCCCCCCCCCCCC)n1 [Compound S15S18D2]	0.1%
CCCCCCCCCCCCCCCCCCSc1nc(NCCN2CCCC2)nc(SCCCCCCCCCCCCCCC)n1 [Compound S15S18D3]	2.6%
CCCCCCCCCCCCCCCCCCSc1nc(NCCN2CCCCC2)nc(SCCCCCCCCCCCCCCC)n1 [Compound S15S18D4]	0.3%
CCCCCCCCCCCCCCCCCCSc1nc(NCCN2CCN(C)CC2)nc(SCCCCCCCCCCCCCCC)n1 [Compound S15S18D5]	0.3%
CCCCCCCCCCCCCCCCCCSc1nc(NCCCN(C)C)nc(SCCCCCCCCCCCCCCC)n1 [Compound S15S18D6]	1.0%
CCCCCCCCCCCCCCCCCCSc1nc(NCCN(CC)CC)nc(SCCCCCCCCCCCCCCC)n1 [Compound S15S18D7]	1.5%
CCCCCCCCCCCCCCCCCCSc1nc(NCCCN2CCOCC2)nc(SCCCCCCCCCCCCCCC)n1 [Compound S15S18D8]	0.0%
CCCCCCCCCCCCCCCCCCSc1nc(NCCCN2CCN(C)CC2)nc(SCCCCCCCCCCCCCCC)n1 [Compound S15S18D9]	0.3%
CCCCCCCCCCCCCCCCCCSc1nc(NCC2CCN(C)CC2)nc(SCCCCCCCCCCCCCCC)n1 [Compound S15S18D10]	0.3%
CCCCCCCCCCCCCCCCSc1nc(NCCN(C)C)nc(SCCCCCCCCCCCCCCCC)n1 [Compound S16S16D1]	0.6%

Structure (SMILES)	Absolute DNA transfection efficiency in HEK293 cells
CCCCCCCCCCCCCCCCSc1nc(NCCN2CCOCC2)nc(SCCCCCCCCCCCCCCCC)n1 [Compound S16S16D2]	1.1%
CCCCCCCCCCCCCCCCSc1nc(NCCN2CCCC2)nc(SCCCCCCCCCCCCCCCC)n1 [Compound S16S16D3]	0.9%
CCCCCCCCCCCCCCCCSc1nc(NCCN2CCCCC2)nc(SCCCCCCCCCCCCCCCC)n1 [Compound S16S16D4]	1.2%
CCCCCCCCCCCCCCCCSc1nc(NCCN2CCN(C)CC2)nc(SCCCCCCCCCCCCCCCC)n1 [Compound S16S16D5]	0.0%
CCCCCCCCCCCCCCCCSc1nc(NCCCN(C)C)nc(SCCCCCCCCCCCCCCCC)n1 [Compound S16S16D6]	0.5%
CCCCCCCCCCCCCCCCSc1nc(NCCN(CC)CC)nc(SCCCCCCCCCCCCCCCC)n1 [Compound S16S16D7]	0.5%
CCCCCCCCCCCCCCCCSc1nc(NCCCN2CCOCC2)nc(SCCCCCCCCCCCCCCCC)n1 [Compound S16S16D8]	0.0%
CCCCCCCCCCCCCCCCSc1nc(NCCCN2CCN(C)CC2)nc(SCCCCCCCCCCCCCCCC)n1 [Compound S16S16D9]	0.5%
CCCCCCCCCCCCCCCCSc1nc(NCC2CCN(C)CC2)nc(SCCCCCCCCCCCCCCCC)n1 [Compound S16S16D10]	0.1%
CCCCCCCCCCCCCCCCCCSc1nc(NCCN(C)C)nc(SCCCCCCCCCCCCCCCC)n1 [Compound S16S18D1]	1.2%
CCCCCCCCCCCCCCCCCCSc1nc(NCCN2CCOCC2)nc(SCCCCCCCCCCCCCCCC)n1 [Compound S16S18D2]	0.0%
CCCCCCCCCCCCCCCCCCSc1nc(NCCN2CCCC2)nc(SCCCCCCCCCCCCCCCC)n1 [Compound S16S18D3]	1.9%
CCCCCCCCCCCCCCCCCCSc1nc(NCCN2CCCCC2)nc(SCCCCCCCCCCCCCCCC)n1 [Compound S16S18D4]	0.3%
CCCCCCCCCCCCCCCCCCSc1nc(NCCN2CCN(C)CC2)nc(SCCCCCCCCCCCCCCCC)n1 [Compound S16S18D5]	1.7%
CCCCCCCCCCCCCCCCCCSc1nc(NCCCN(C)C)nc(SCCCCCCCCCCCCCCCC)n1 [Compound S16S18D6]	0.2%
CCCCCCCCCCCCCCCCCCSc1nc(NCCN(CC)CC)nc(SCCCCCCCCCCCCCCCC)n1 [Compound S16S18D7]	1.0%
CCCCCCCCCCCCCCCCCCSc1nc(NCCCN2CCOCC2)nc(SCCCCCCCCCCCCCCCC)n1 [Compound S16S18D8]	0.3%
CCCCCCCCCCCCCCCCCCSc1nc(NCCCN2CCN(C)CC2)nc(SCCCCCCCCCCCCCCCC)n1 [Compound S16S18D9]	0.4%
CCCCCCCCCCCCCCCCCCSc1nc(NCC2CCN(C)CC2)nc(SCCCCCCCCCCCCCCCC)n1 [Compound S16S18D10]	0.8%
CCCCCCCCCCCCCCCCCCSc1nc(NCCN(C)C)nc(SCCCCCCCCCCCCCCCCCC)n1 [Compound S18S18D1]	0.0%

tested on: HEK293 cells; experiment: Preliminary screening as mRNA vectors, EGFP mRNA transfection of HEK293 cells; format: cell-based; conditions: HEK293 cells, 96-well plates, EGFP mRNA 50 ng per well; percentage of GFP fluorescent cells relative to total number of cells (Hoechst)
Method in brief: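 HEK293 cells in DMEM plus 10% FBS transfected in 96-well format with 50 ng EGFP mRNA per well; Lipofectamine2000 served as positive control. Read-out is the percentage of GFP-fluorescent cells among total cells, counted by Hoechst nuclear stain.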

Structure (SMILES)	Absolute mRNA transfection efficiency in HEK293 cells
CCCCCCCCCCCCCCCCSc1nc(NCCN2CCOCC2)nc(SCCCCCCCCCCCCCCC)n1 [Compound S15S16D2]	0.7%
CCCCCCCCCCCCCCCCSc1nc(NCCN2CCCC2)nc(SCCCCCCCCCCCCCCC)n1 [Compound S15S16D3]	0.2%
CCCCCCCCCCCCCCCCSc1nc(NCCN2CCCCC2)nc(SCCCCCCCCCCCCCCC)n1 [Compound S15S16D4]	3.2%
CCCCCCCCCCCCCCCCSc1nc(NCCN2CCN(C)CC2)nc(SCCCCCCCCCCCCCCC)n1 [Compound S15S16D5]	0.2%
CCCCCCCCCCCCCCCCSc1nc(NCCCN(C)C)nc(SCCCCCCCCCCCCCCC)n1 [Compound S15S16D6]	0.4%
CCCCCCCCCCCCCCCCSc1nc(NCCN(CC)CC)nc(SCCCCCCCCCCCCCCC)n1 [Compound S15S16D7]	0.4%
CCCCCCCCCCCCCCCCSc1nc(NCCCN2CCOCC2)nc(SCCCCCCCCCCCCCCC)n1 [Compound S15S16D8]	0.0%
CCCCCCCCCCCCCCCCSc1nc(NCCCN2CCN(C)CC2)nc(SCCCCCCCCCCCCCCC)n1 [Compound S15S16D9]	0.5%
CCCCCCCCCCCCCCCCSc1nc(NCC2CCN(C)CC2)nc(SCCCCCCCCCCCCCCC)n1 [Compound S15S16D10]	0.6%
CCCCCCCCCCCCCCCCCCSc1nc(NCCN(C)C)nc(SCCCCCCCCCCCCCCC)n1 [Compound S15S18D1]	0.0%
CCCCCCCCCCCCCCCCCCSc1nc(NCCN2CCOCC2)nc(SCCCCCCCCCCCCCCC)n1 [Compound S15S18D2]	0.5%
CCCCCCCCCCCCCCCCCCSc1nc(NCCN2CCCC2)nc(SCCCCCCCCCCCCCCC)n1 [Compound S15S18D3]	1.9%
CCCCCCCCCCCCCCCCCCSc1nc(NCCN2CCCCC2)nc(SCCCCCCCCCCCCCCC)n1 [Compound S15S18D4]	0.0%
CCCCCCCCCCCCCCCCCCSc1nc(NCCN2CCN(C)CC2)nc(SCCCCCCCCCCCCCCC)n1 [Compound S15S18D5]	0.4%
CCCCCCCCCCCCCCCCCCSc1nc(NCCCN(C)C)nc(SCCCCCCCCCCCCCCC)n1 [Compound S15S18D6]	0.0%
CCCCCCCCCCCCCCCCCCSc1nc(NCCN(CC)CC)nc(SCCCCCCCCCCCCCCC)n1 [Compound S15S18D7]	9.3%
CCCCCCCCCCCCCCCCCCSc1nc(NCCCN2CCOCC2)nc(SCCCCCCCCCCCCCCC)n1 [Compound S15S18D8]	0.5%
CCCCCCCCCCCCCCCCCCSc1nc(NCCCN2CCN(C)CC2)nc(SCCCCCCCCCCCCCCC)n1 [Compound S15S18D9]	0.0%
CCCCCCCCCCCCCCCCCCSc1nc(NCC2CCN(C)CC2)nc(SCCCCCCCCCCCCCCC)n1 [Compound S15S18D10]	1.8%
CCCCCCCCCCCCCCCCSc1nc(NCCN(C)C)nc(SCCCCCCCCCCCCCCCC)n1 [Compound S16S16D1]	0.4%

Structure (SMILES)	Absolute mRNA transfection efficiency in HEK293 cells
CCCCCCCCCCCCCCCCSc1nc(NCCN2CCOCC2)nc(SCCCCCCCCCCCCCCCC)n1 [Compound S16S16D2]	0.2%
CCCCCCCCCCCCCCCCSc1nc(NCCN2CCCC2)nc(SCCCCCCCCCCCCCCCC)n1 [Compound S16S16D3]	0.8%
CCCCCCCCCCCCCCCCSc1nc(NCCN2CCCCC2)nc(SCCCCCCCCCCCCCCCC)n1 [Compound S16S16D4]	2.2%
CCCCCCCCCCCCCCCCSc1nc(NCCN2CCN(C)CC2)nc(SCCCCCCCCCCCCCCCC)n1 [Compound S16S16D5]	0.7%
CCCCCCCCCCCCCCCCSc1nc(NCCCN(C)C)nc(SCCCCCCCCCCCCCCCC)n1 [Compound S16S16D6]	0.5%
CCCCCCCCCCCCCCCCSc1nc(NCCN(CC)CC)nc(SCCCCCCCCCCCCCCCC)n1 [Compound S16S16D7]	0.0%
CCCCCCCCCCCCCCCCSc1nc(NCCCN2CCOCC2)nc(SCCCCCCCCCCCCCCCC)n1 [Compound S16S16D8]	1.7%
CCCCCCCCCCCCCCCCSc1nc(NCCCN2CCN(C)CC2)nc(SCCCCCCCCCCCCCCCC)n1 [Compound S16S16D9]	0.2%
CCCCCCCCCCCCCCCCSc1nc(NCC2CCN(C)CC2)nc(SCCCCCCCCCCCCCCCC)n1 [Compound S16S16D10]	2.7%
CCCCCCCCCCCCCCCCCCSc1nc(NCCN(C)C)nc(SCCCCCCCCCCCCCCCC)n1 [Compound S16S18D1]	2.1%
CCCCCCCCCCCCCCCCCCSc1nc(NCCN2CCOCC2)nc(SCCCCCCCCCCCCCCCC)n1 [Compound S16S18D2]	0.0%
CCCCCCCCCCCCCCCCCCSc1nc(NCCN2CCCC2)nc(SCCCCCCCCCCCCCCCC)n1 [Compound S16S18D3]	1.8%
CCCCCCCCCCCCCCCCCCSc1nc(NCCN2CCCCC2)nc(SCCCCCCCCCCCCCCCC)n1 [Compound S16S18D4]	0.3%
CCCCCCCCCCCCCCCCCCSc1nc(NCCN2CCN(C)CC2)nc(SCCCCCCCCCCCCCCCC)n1 [Compound S16S18D5]	0.3%
CCCCCCCCCCCCCCCCCCSc1nc(NCCCN(C)C)nc(SCCCCCCCCCCCCCCCC)n1 [Compound S16S18D6]	1.8%
CCCCCCCCCCCCCCCCCCSc1nc(NCCN(CC)CC)nc(SCCCCCCCCCCCCCCCC)n1 [Compound S16S18D7]	1.8%
CCCCCCCCCCCCCCCCCCSc1nc(NCCCN2CCOCC2)nc(SCCCCCCCCCCCCCCCC)n1 [Compound S16S18D8]	1.9%
CCCCCCCCCCCCCCCCCCSc1nc(NCCCN2CCN(C)CC2)nc(SCCCCCCCCCCCCCCCC)n1 [Compound S16S18D9]	0.5%
CCCCCCCCCCCCCCCCCCSc1nc(NCC2CCN(C)CC2)nc(SCCCCCCCCCCCCCCCC)n1 [Compound S16S18D10]	3.0%
CCCCCCCCCCCCCCCCCCSc1nc(NCCN(C)C)nc(SCCCCCCCCCCCCCCCCCC)n1 [Compound S18S18D1]	0.0%
